Assay results: patent US20250295798A1, “LIGAND-DRUG CONJUGATE OF EXATECAN ANALOGUE, AND MEDICAL USE THEREOF” (BeiGene Switzerland GmbH, priority 2022, published 2025)
Read-outs that look alike come from different tables or passages of the source.

Experiments:
Type in all cases: cell-based, human
[1] = test system: MDA-MB-453; assay: Compounds cellular killing in MDA-MB-453; details: for EC50 / Emax: Homo sapiens; for killing activity compared with 1-B: MDA-MB-453, FIG. 1
Description: Seeding cells MDA-MB-453 (2E3/well) into 96-well plate (Greiner: 655090), 100 ul/well. Incubation at 37° C., 5% CO2, overnight.
Adding the fresh growth-medium containing the varying concentrations of compounds, 50 ul/well.
Incubation at 37° C., 5% CO2, 6 days.
The cell viability detected by Cell Titer-Glo (Promega, G7573). Add 70 µL/well of CellTiter-Glo® Reagent in each well.
Allow the plates to incubate at room temperature for 10 minutes to stabilize luminescent signal.
Analyze with Microplate Reader.

[2] = test system: A375; assay: Compounds cellular killing in A375; details: Homo sapiens, A375, 6 days, Cell Titer-Glo
In short: (§1)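 A375 (1E3/well) or Calu-6 (2E3/well) cells were seeded overnight, then exposed to varying compound concentrations for 6 days at 37 °C, 5% CO2. Viability was read by CellTiter-Glo luminescence.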

[3] = test system: Calu-6; assay: Compounds cellular killing in Calu-6; details: Homo sapiens, Calu-6, […], Calu-6, 6 days, Cell Titer-Glo
In short: as §1

SMILES | EC50 ([1]; MDA-MB-453, […]) | Emax ([1]; MDA-MB-453, […]) | killing activity compared with 1-B [1] | EC50 ([1]; MDA-MB-453, 6 days, Cell Titer-Glo, read-out: EC50) | Emax ([1]; MDA-MB-453, 6 days, Cell Titer-Glo, read-out: Emax (%)) | Emax ([2]; A-375) | Emax [3] | EC50 ([2]; A-375, […]) | Emax ([2]; A-375, […]) | EC50 [3]
CC[C@@]1(O)C(=O)OCc2c1cc1n(c2=O)Cc2c-1nc1cc(F)c(C)c3c1c2[C@@H](N(C)C)CC3 [Example 1-5, (1S,9S)-1-(dimethylamino)-9-ethyl-5-fluoro-9-hydroxy-4-methyl-1,2,3,9,12,15-hexahydro-10H,13H-benzo[de]pyrano[3′,4′:6,7]indolizino[1,2-b]quinoline-10,13-dione] | 1.3 nM | 93.3% | comparable killing activity to 1-B | – | – | – | – | – | – | –
CC[C@@]1(O)C(=O)OCc2c1cc1n(c2=O)Cc2c-1nc1cc(F)c(C)c3c1c2[C@@H](N1CCNCC1)CC3 [Example 1-6, (1S,9S)-9-ethyl-5-fluoro-9-hydroxy-4-methyl-1-(piperazin-1-yl)-1,2,3,9,12,15-hexahydro-10H,13H-benzo[de]pyrano[3′,4′:6,7]indolizino[1,2-b]quinoline-10,13-dione] | 3.3 nM | 93.4% | less potent than 1-B | – | – | – | – | – | – | –
CC[C@@]1(O)C(=O)OCc2c1cc1n(c2=O)Cc2c-1nc1cc(F)c(C)c3c1c2[C@@H](N1CCN(C)CC1)CC3 [Example 1-7, (1S,9S)-9-ethyl-5-fluoro-9-hydroxy-4-methyl-1-(4-methylpiperazin-1-yl)-1,2,3,9,12,15-hexahydro-10H,13H-benzo[de]pyrano[3′,4′:6,7]indolizino[1,2-b]quinoline-10,13-dione] | 1.2 nM | 96.8% | comparable killing activity to 1-B | – | – | – | – | – | – | –
CC[C@@]1(O)C(=O)OCc2c1cc1n(c2=O)Cc2c-1nc1cc(F)c(C)c3c1c2[C@@H](N)CC3 [Example 1-B, reference compound] | – | – | – | 0.9 nM | 99.4% | 100% | 98.4% | – | – | –
CC[C@@]1(O)C(=O)OCc2c1cc1n(c2=O)Cc2c-1nc1cc(F)c(C)c3c1c2C(CCCCO)CC3 (stereo partly drawn) [Example 2-48, (9S)-9-ethyl-5-fluoro-9-hydroxy-1-(4-hydroxybutyl)-4-methyl-1,2,3,9,12,15-hexahydro-10H,13H-benzo[de]pyrano[3′,4′:6,7]indolizino[1,2-b]quinoline-10,13-dione] | – | – | – | – | – | – | 98.7% | 0.4 nM | 99.5% | 0.1 nM
CC[C@@]1(O)C(=O)OCc2c1cc1n(c2=O)Cc2c-1nc1cc(F)c(C)c3c1c2C(CNCCO)CC3 (stereo partly drawn) [Example 2-53, Nbenzyl (9S)-9-ethyl-5-fluoro-9-hydroxy-1-(((2-hydroxyethyl)amino)methyl)-4-methyl-1,2,3,9,12,15-hexahydro-10H,13H-benzo[de]pyrano[3′,4′:6,7]indolizino[1,2-b]quinoline-10,13-dione] | – | – | – | – | – | – | 98.7% | 5.1 nM | 99.9% | 1.6 nM
CC[C@@]1(O)C(=O)OCc2c1cc1n(c2=O)Cc2c-1nc1cc(F)c(C)c3c1c2C(CN(C)CCO)CC3 (stereo partly drawn) [Example 2-54, (9S)-9-ethyl-5-fluoro-9-hydroxy-1-(((2-hydroxyethyl)(methyl)amino)methyl)-4-methyl-1,2,3,9,12,15-hexahydro-10H,13H-benzo[de]pyrano[3′,4′:6,7]indolizino[1,2-b]quinoline-10,13-dione] | – | – | – | – | – | – | 98.2% | 0.9 nM | 100% | 0.2 nM
CC[C@@]1(O)C(=O)OCc2c1cc1n(c2=O)Cc2c-1nc1cc(F)c(C)c3c1c2C(CNCCCO)CC3 (stereo partly drawn) [Example 2-55, (9S)-9-ethyl-5-fluoro-9-hydroxy-1-(((3-hydroxypropyl)amino)methyl)-4-methyl-1,2,3,9,12,15-hexahydro-10H,13H-benzo[de]pyrano[3′,4′:6,7]indolizino[1,2-b]quinoline-10,13-dione] | – | – | – | – | – | – | 99.3% | 7.3 nM | 99.8% | 2.8 nM
CC[C@@]1(O)C(=O)OCc2c1cc1n(c2=O)Cc2c-1nc1cc(Cl)c(C)c3c1c2[C@@H](NC(=O)C(C)(F)CO)CC3 (stereo partly drawn) [Example 2-58, N-((1S,9S)-5-chloro-9-ethyl-9-hydroxy-4-methyl-10,13-dioxo-2,3,9,10,13,15-hexahydro-1H,12H-benzo[de]pyrano[3′,4′:6,7]indolizino[1,2-b]quinolin-1-yl)-2-fluoro-3-hydroxy-2-methylpropanamide] | – | – | – | – | – | – | 98.8% | 2.9 nM | 99.9% | 0.9 nM
